Experiments:
[1] = tested on: premicturition contractions in rats with spinal cord injury; assay: Inhibitory activity on detrusor overactivity (cystometry, premicturition contractions) in rats with spinal cord injury; format: in vivo, rat; details: p.o.; for amplitude of premicturition contractions (relative value, before administration = 100) / frequency of premicturition contractions (relative value, before administration = 100): female SD rats with spinal cord injury, mean ± SE, n = 9; for effect on premicturition contractions (amplitude and frequency of premicturition contractions), in words: rats with spinal cord injury, summary of Tables 1 and 2
Text: Spinal cord was injured in the rats.

[2] = tested on: A-type potassium channels; details: known from WO02/078523 and WO02/078710; cited from earlier work
[3] = Compound (Ia) 0.01 mg/kg, after 1 hour
[4] = Compound (Ia) 0.01 mg/kg, after 3 hours
[5] = Compound (Ia) 0.01 mg/kg, after 5 hours
[6] = Tolterodine 3 mg/kg, after 1 hour
[7] = Tolterodine 3 mg/kg, after 3 hours
[8] = Tolterodine 3 mg/kg, after 5 hours

Row | Structure (SMILES) | amplitude of premicturition contractions (relative value, before administration = 100) [1, 3] | frequency of premicturition contractions (relative value, before administration = 100) [1, 3] | amplitude of premicturition contractions (relative value, before administration = 100) [1, 4] | frequency of premicturition contractions (relative value, before administration = 100) [1, 4] | amplitude of premicturition contractions (relative value, before administration = 100) [1, 5] | frequency of premicturition contractions (relative value, before administration = 100) [1, 5] | effect on premicturition contractions (amplitude and frequency of premicturition contractions), in words [1] | amplitude of premicturition contractions (relative value, before administration = 100) [1, 6] | frequency of premicturition contractions (relative value, before administration = 100) [1, 6] | amplitude of premicturition contractions (relative value, before administration = 100) [1, 7] | frequency of premicturition contractions (relative value, before administration = 100) [1, 7] | amplitude of premicturition contractions (relative value, before administration = 100) [1, 8] | frequency of premicturition contractions (relative value, before administration = 100) [1, 8] | effect on A-type potassium channels, in words [2]
1 | C[C@](O)(C(=O)Nc1cccc2c1C(=O)c1sccc1CS2(=O)=O)C(F)(F)F [Compound (Ia), (S)-(+)-3,3,3-trifluoro-2-hydroxy-2-methyl-N-(5,5,10-trioxo-4,10-dihydrothieno[3,2-c][1]benzothiepin-9-yl) propanamide] | 71.9 ± 7.3 % | 61.6 ± 9.8 % | 62.6 ± 7.3 % | 53.2 ± 4.9 % | 65.1 ± 7.2% | 56.0 ± 8.3 % | inhibited premicturition contractions |  |  |  |  |  |  | 
2 | Cc1ccc(O)c([C@H](CCN(C(C)C)C(C)C)c2ccccc2)c1 [Tolterodine, tolterodine, reference compound] |  |  |  |  |  |  | inhibited premicturition contractions | 105.9 ± 24.3% | 70.4 ± 11.6% | 79.6 ± 9.7% | 73.4 ± 8.2% | 70.3 ± 11.9 % | 75.5 ± 12.0% | 
3 | CC(O)(C(=O)Nc1cccc2c1C(=O)c1sccc1CS2(=O)=O)C(F)(F)F (stereo not drawn) [Compound (I), 3,3,3-trifluoro-2-hydroxy-2-methyl-N-(5,5,10-trioxo-4,10-dihydrothieno[3,2-c][1]benzothiepin-9-yl)propanamide] |  |  |  |  |  |  |  |  |  |  |  |  |  | opening effect of A-type potassium channels

From US20060160887A1, “Medicinal composition” (Kyowa Hakko Kogyo Co., Ltd., priority 2003, published 2006)
